The source made the active and inactive calls. No cut-off for these calls is given here.

The subject of test [1] is Candida albicans. Briefly: Antifungal activity against Candida albicans after 16 to 19 hrs by disk diffusion assay. Format: functional, organism-based.
Test [2] relates to Candida albicans. Put plainly: Antifungal activity against Candida albicans at <= 1 ug after 16 to 19 hrs by disk diffusion assay. Format: functional, organism-based. In general terms: In agar diffusion tests the substance spreads into inoculated agar from a disc or well.
The test system of test [3] is Candida albicans. Briefly: Antifungal activity against Candida albicans after 16 to 19 hrs by disk diffusion assay in presence of 100 ppm ergosterol. Format: functional, organism-based.
The test system of test [4] is Candida albicans. Briefly: Antifungal activity against Candida albicans at 2 ug after 16 to 19 hrs by disk diffusion assay in presence of 20 ppm ergosterol. The class given is functional.
The test system of test [5] is Candida albicans. Briefly: Antifungal activity against Candida albicans at 1 ug after 16 to 19 hrs by disk diffusion assay in presence of increasing concentration of ergosterol. The class given is functional, organism-based.
The test system of test [6] is Candida albicans. Put plainly: Antifungal activity against Candida albicans at 5 ug after 16 to 19 hrs by disk diffusion assay in presence of 120 ppm ergosterol. The class given is functional.

For the compound `CO[C@H]([C@H](C)/C=C/N(C)C=O)[C@@H](C)C(=O)CC[C@H](C)[C@H](C[C@@H]1OC(=O)C[C@@H](OC(N)=O)C[C@H](C)C[C@H](O)[C@H](C)[C@@H](OC)c2coc(n2)-c2coc(n2)-c2coc(n2)/C=C/C[C@H](OC)[C@H]1C)OC`, the result with Candida albicans [1] was inactive. The result in the test on Candida albicans [2] was Active.

With `Clc1ccc(COC(Cn2ccnc2)c2ccc(Cl)cc2Cl)c(Cl)c1` (stereo not drawn), the outcome in the test with Candida albicans [3] was Active.

Regarding `C[C@@H]1[C@H](O)[C@@H](C)/C=C/C=C/C=C/C=C/C=C/C=C/C=C/[C@H](O[C@@H]2O[C@H](C)[C@@H](O)[C@H](N)[C@@H]2O)C[C@@H]2O[C@](O)(C[C@@H](O)C[C@@H](O)[C@H](O)CC[C@@H](O)C[C@@H](O)CC(=O)O[C@H]1C)C[C@H](O)[C@H]2C(=O)O` [AMPHOTERICIN B], the Activity with Candida albicans [4] worked out at 50%. Further, in the test on Candida albicans [5], the result was Active.

For the compound `C/C1=C\[C@H](C)C[C@H](C)OC(=O)C[C@H](c2ccc(O)cc2)NC(=O)[C@@H](Cc2c(Br)[nH]c3ccccc23)N(C)C(=O)[C@H](C)NC(=O)[C@@H](C)C1` [JASPAMIDE], the outcome in the test on Candida albicans [1] was inactive. In the test on Candida albicans [2], the result was Active. In addition, in the test on Candida albicans [6], the Activity is 50%.

The record behind these values is ChEMBL document CHEMBL1147332, “Screening of marine invertebrates for the presence of ergosterol-sensitive antifungal compounds” (1993).
